Columns and labels:
MKNK1 [1] = target: T1, MKNK1 (Homo sapiens, UniProt Q9BUB5, T385D); experiment: MKNK1 kinase high ATP assay (TR-FRET-based); type: biochemical; details: 2 mM ATP, 15 min preincubation
T1 construct: GST (N); purchased Carna Biosciences 02-145; host or cells: insect cells (baculovirus expression system)
Protocol: MKNK1 Kinase High ATP Assay
MKNK1-inhibitory activity at high ATP of compounds of the present invention after their preincubation with MKNK1 was quantified employing the TR-FRET-based MKNK1 high ATP assay as described in the following paragraphs.
(§1) A recombinant fusion protein of Glutathione-S-Transferase (GST, N-terminally) and human full-length MKNK1 (amino acids 1-424 and T344D of accession number BAA 19885.1), expressed in insect cells using baculovirus expression system and purified via glutathione sepharose affinity chromatography, was purchased from Carna Biosciences (product no 02-145) and used as enzyme. As substrate for the kinase reaction the biotinylated peptide biotin-Ahx-IKKRKLTRRKSLKG (C-terminus in amide form) was used, which can be purchased e.g. from the company Biosyntan (Berlin-Buch, Germany).
(§2) For the assay 50 nL of a 100 fold concentrated solution of the test compound in DMSO was pipetted into a black low volume 384 well microtiter plate (Greiner Bio-One, Frickenhausen, Germany), 2 μL of a solution of MKNK1 in aqueous assay buffer [50 mM HEPES pH 7.5, 5 mM magnesium chloride, 1.0 mM dithiothreitol, 0.005% (v/v) Nonidet-P40 (Sigma)] was added and the mixture was incubated for 15 min at 22° C. to allow pre-binding of the test compounds to the enzyme before the start of the kinase reaction. Then the kinase reaction was started by the addition of 3 μL of a solution of adenosine-tri-phosphate (ATP, 3.3 mM=>final conc. in the 5 μL assay volume is 2 mM) and substrate (0.1 μM=>final conc. in the 5 μL assay volume is 0.06 μM) in assay buffer and the resulting mixture was incubated for a reaction time of 30 min at 22° C. The concentration of MKNK1 was adjusted depending of the activity of the enzyme lot and was chosen appropriate to have the assay in the linear range, typical concentrations were in the range of 0.003 μg/mL. The reaction was stopped by the addition of 5 μL of a solution of TR-FRET detection reagents (5 nM streptavidine-XL665 [Cisbio Bioassays, Codolet, France] and 1 nM anti-ribosomal protein S6 (pSer236)-antibody from Invitrogen [#44921G] and 1 nM LANCE EU-W1024 labeled ProteinG [Perkin-Elmer, product no. AD0071]) in an aqueous EDTA-solution (100 mM EDTA, 0.1% (w/v) bovine serum albumin in 50 mM HEPES pH 7.5).
(§3) The resulting mixture was incubated for 1 h at 22° C. to allow the formation of complex between the phosphorylated biotinylated peptide and the detection reagents. Subsequently the amount of phosphorylated substrate was evaluated by measurement of the resonance energy transfer from the Eu-chelate to the streptavidine-XL. Therefore, the fluorescence emissions at 620 nm and 665 nm after excitation at 350 nm were measured in a TR-FRET reader, e.g. a Rubystar (BMG Labtechnologies, Offenburg, Germany) or a Viewlux (Perkin-Elmer). The ratio of the emissions at 665 nm and at […] was taken as the measure for the amount of phosphorylated substrate. The data were normalised (enzyme reaction without inhibitor=0% inhibition, all other assay components but no enzyme=100% inhibition).

MKNK1 [2] = target: T1, MKNK1; experiment: MKNK1 kinase assay (MKNK1 TR-FRET assay); type: biochemical; details: 10 μM ATP, 15 min preincubation
From the text: MKNK1-inhibitory activity of compounds of the present invention was quantified employing the MKNK1 TR-FRET assay as described in the following paragraphs.
as §1, with “human full-lengt” for “human full-length”, “was used” for “was used,”, “e.g. form” for “e.g. from”
as §2, with “Then the kinase reaction was started by the addition of 3 μL of a solution of adenosine-tri-phosphate (ATP, 3.3 mM=>final conc. in the 5 μL assay volume is 2 mM) and substrate (0.1 μM=>final conc. in the 5 μL assay volume is 0.06 μM) in assay buffer and the resulting mixture was incubated for a reaction time of 30 min at 22° C.” left out, “[…].” for “0.003 μg/mL.”
as §3

T1 sequence (Q9BUB5 1-424 isoform Q9BUB5-2 T344D): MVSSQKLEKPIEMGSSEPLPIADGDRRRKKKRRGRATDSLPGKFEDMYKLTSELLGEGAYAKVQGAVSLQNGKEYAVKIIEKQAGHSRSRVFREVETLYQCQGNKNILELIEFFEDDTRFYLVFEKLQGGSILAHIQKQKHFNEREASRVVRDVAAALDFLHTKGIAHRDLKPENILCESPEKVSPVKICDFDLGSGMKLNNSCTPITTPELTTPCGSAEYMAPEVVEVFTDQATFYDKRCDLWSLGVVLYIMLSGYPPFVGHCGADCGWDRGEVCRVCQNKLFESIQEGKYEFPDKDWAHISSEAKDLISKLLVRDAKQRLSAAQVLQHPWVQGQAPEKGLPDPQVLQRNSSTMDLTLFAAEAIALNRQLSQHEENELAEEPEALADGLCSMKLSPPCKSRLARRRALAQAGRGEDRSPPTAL

Row | SMILES | IC50 (MKNK1 [1]; Table 2a) | IC50 (MKNK1 [2]; Table 1a) | further results
1 | COC[C@H]1CCCN1c1cccc2oc(-c3cnc4ccc(OCCCS(C)(=O)=NC#N)nn34)cc12 (mixture of isomers) [II-25, [{3-[(3-{4-[2-(Methoxymethyl)pyrrolidin-1-yl]-1-benzofuran-2-yl}imidazo-[1,2-b]pyridazin-6-yl)oxy]propyl}(methyl)oxido-λ^6-sulfanylidene]cyanamide] | – | – | IC50 (MKNK1 [1]; Table 2b): 2.7 nM; IC50 (MKNK1 [2]; Table 1b): 2.4 nM
2 | c1cc2oc(-c3cnc4ccc(OC[C@H]5CCCCN5)nn34)cc2c(N2CCOCC2)n1 (stereo in doubt) [III-140, 3-[4-(morpholin-4-yl)furo[3,2-c]pyridin-2-yl]-6-(piperidin-2-ylmeth-oxy)imidazo[1,2-b]pyridazine] | – | – | IC50 (MKNK1 [1]; Table 2c): 183 nM; IC50 (MKNK1 [2]; Table 1c): 80 nM
3 | O=C1CC[C@H](COc2ccc3ncc(-c4cc5ccccc5o4)n3n2)N1 [Example I-9, (5R)-5-({[3-(1-Benzofuran-2-yl)imidazo[1,2-b]pyridazin-6-yl]oxy}methyl)-pyrrolidin-2-one] | 9.6 nM | 3.3 nM | –
4 | COC(=O)N1CCC[C@H]1CCOc1ccc2ncc(-c3cc4ccccc4o3)n2n1 [Example I-10, Methyl (2S)-2-(2-{[3-(1-benzofuran-2-yl)imidazo[1,2-b]pyridazin-6-yl]oxy}-ethyl)pyrrolidine-1-carboxylate] | 9.9 nM | 3.2 nM | –
5 | CC(=O)N[C@H]1C[C@H](Oc2ccc3ncc(-c4cc5ccccc5o4)n3n2)C1 [Example I-11, N-(trans-3-{[3-(1-Benzofuran-2-yl)imidazo[1,2-b]pyridazin-6-yl]oxy}cyclobutyl)-acetamide] | 10 nM | 2.9 nM | –
6 | COc1cccc2oc(-c3cnc4ccc(OCCN5CCNC5=O)nn34)cc12 [Example I-12, 1-(2-{[3-(4-methoxy-1-benzofuran-2-yl)imidazo[1,2-b]pyridazin-6-yl]oxy}ethyl)-imidazolidin-2-one] | 10.2 nM | 3.5 nM | –
7 | COc1ccc2oc(-c3cnc4ccc(OC[C@@H]5CCC(=O)N5)nn34)cc2c1 [Example I-13, (5S)-5-({[3-(5-methoxy-1-benzofuran-2-yl)imidazo[1,2-b]pyridazin-6-yl]oxy}methyl)pyrrolidin-2-one] | 10.7 nM | 3.7 nM | –
8 | CC(C)(C)CC(=O)N1CCOC(COc2ccc3ncc(-c4cc5ccccc5o4)n3n2)C1 (stereo not drawn) [Example I-14, 1-[2-({[3-(1-Benzofuran-2-yl)imidazo[1,2-b]pyridazin-6-yl]oxy}methyl)-morpholin-4-yl]-3,3-dimethylbutan-1-one] | 10.9 nM | 5.1 nM | –
9 | O=C(NCCOc1ccc2ncc(-c3cc4ccccc4o3)n2n1)C1CC1 [Example I-15, N-(2-{[3-(1-Benzofuran-2-yl)imidazo[1,2-b]pyridazin-6-yl]oxy}ethyl)-cyclopropanecarboxamide] | 12.5 nM | 5.6 nM | –
10 | O=C(c1ccccc1)N1CCOC(COc2ccc3ncc(-c4cc5ccccc5o4)n3n2)C1 (stereo not drawn) [Example I-16, [2-({[3-(1-benzofuran-2-yl)imidazo[1,2-b]pyridazin-6-yl]oxy}methyl)morpholin-4-yl](phenyl)methanone] | 13.3 nM | 4.7 nM | –
11 | CC(C)(C)CC(=O)NCCOc1ccc2ncc(-c3cc4ccccc4o3)n2n1 [Example I-17, N-(2-{[3-(1-Benzofuran-2-yl)imidazo[1,2-b]pyridazin-6-yl]oxy}ethyl)-3,3-dimethylbutanamide] | 13.7 nM | 4.6 nM | –
12 | C[C@@H]1CNCCN1c1cccc2oc(-c3cnc4ccc(OC[C@@H]5CCC(=O)N5)nn34)cc12 [II-62, (5S)-5-{[(3-{4-[(2R)-2-methylpiperazin-1-yl]-1-benzofuran-2-yl}imidazo[1,2-b]pyridazin-6-yl)oxy]methyl}pyrrolidin-2-one] | – | – | IC50 (MKNK1 [2]; Table 1b): 5.1 nM
13 | C[C@@H]1CNCCN1c1cccc2oc(-c3cnc4ccc(OCC(F)(F)F)nn34)cc12 [II-64, 3-{4-[(2R)-2-methylpiperazin-1-yl]-1-benzofuran-2-yl}-6-(2,2,2-trifluoroethoxy)im-idazo[1,2-b]pyridazine] | – | – | IC50 (MKNK1 [2]; Table 1b): 9.3 nM
14 | CC1(C)CN(c2cccc3oc(-c4cnc5ccc(O[C@H]6C[C@H](N)C6)nn45)cc23)CCO1 [II-66, trans-3-({3-[4-(2,2-dimethylmorpholin-4-yl)-1-benzofuran-2-yl]imidazo[1,2-b]pyridazin-6-yl}oxy)cyclobutanamine] | – | – | IC50 (MKNK1 [2]; Table 1b): 27.3 nM

The next lines start with results.

Row | IC50 (MKNK1 [1]; Table 2a) | IC50 (MKNK1 [2]; Table 1a) | SMILES | further results
15 | 2.3 nM | 1 nM | O=C(C1CC1)N1CCC[C@H]1CCOc1ccc2ncc(-c3cc4ccccc4o3)n2n1 [Example I-1, [(2S)-2-(2-{[3-(1-Benzofuran-2-yl)imidazo[1,2-b]pyridazin-6-yl]oxy}ethyl)-pyrrolidin-1-yl](cyclopropyl)methanone] | –
16 | 3.1 nM | 1.8 nM | CC(=O)N1CCC[C@H]1CCOc1ccc2ncc(-c3cc4ccccc4o3)n2n1 [Example I-2, 1-[(2S)-2-(2-{[3-(1-Benzofuran-2-yl)imidazo[1,2-b]pyridazin-6-yl]oxy}ethyl)-pyrrolidin-1-yl]ethanone] | –
17 | 8.8 nM | 5.6 nM | O=C1NC(COc2ccc3ncc(-c4cc5ccccc5o4)n3n2)CO1 (stereo not drawn) [Example I-4, 4-({[3-(1-Benzofuran-2-yl)imidazo[1,2-b]pyridazin-6-yl]oxy}methyl)-1,3-oxazolidin-2-one] | –
18 | 8.9 nM | 5.3 nM | O=C(N[C@H]1C[C@H](Oc2ccc3ncc(-c4cc5ccccc5o4)n3n2)C1)C1CC1 [Example I-5, N-(trans-3-{[3-(1-Benzofuran-2-yl)imidazo[1,2-b]pyridazin-6-yl]oxy}cyclobutyl)-cyclopropanecarboxamide] | –
19 | 9.2 nM | 3.4 nM | CC(C)(C)CC(=O)N1CCC[C@H]1CCOc1ccc2ncc(-c3cc4ccccc4o3)n2n1 [Example I-6, 1-[(2S)-2-(2-{[3-(1-Benzofuran-2-yl)imidazo[1,2-b]pyridazin-6-yl]oxy}ethyl)-pyrrolidin-1-yl]-3,3-dimethylbutan-1-one] | –
20 | 9.2 nM | 3.1 nM | O=C1CC[C@@H](COc2ccc3ncc(-c4cc5ccccc5o4)n3n2)N1 [Example I-7, (5S)-5-({[3-(1-Benzofuran-2-yl)imidazo[1,2-b]pyridazin-6-yl]oxy}methyl)-pyrrolidin-2-one] | –
21 | 9.3 nM | 5.2 nM | O=C1CCCC(COc2ccc3ncc(-c4cc5ccccc5o4)n3n2)N1 (stereo not drawn) [Example I-8, 6-({[3-(1-Benzofuran-2-yl)imidazo[1,2-b]pyridazin-6-yl]oxy}methyl)piperidin-2-one] | –

Reference: US20160287589A1, “SUBSTITUTED-IMIDAZOPYRIDAZINES” (BAYER PHARMA AKTIENGESELLSCHAFT, priority 2013, published 2016)
